The source made the active and inactive calls. How the calls were made is not given here.

Alkaline phosphatase, tissue-nonspecific isozyme (Homo sapiens), sequence (P05186 whole entry, looked up): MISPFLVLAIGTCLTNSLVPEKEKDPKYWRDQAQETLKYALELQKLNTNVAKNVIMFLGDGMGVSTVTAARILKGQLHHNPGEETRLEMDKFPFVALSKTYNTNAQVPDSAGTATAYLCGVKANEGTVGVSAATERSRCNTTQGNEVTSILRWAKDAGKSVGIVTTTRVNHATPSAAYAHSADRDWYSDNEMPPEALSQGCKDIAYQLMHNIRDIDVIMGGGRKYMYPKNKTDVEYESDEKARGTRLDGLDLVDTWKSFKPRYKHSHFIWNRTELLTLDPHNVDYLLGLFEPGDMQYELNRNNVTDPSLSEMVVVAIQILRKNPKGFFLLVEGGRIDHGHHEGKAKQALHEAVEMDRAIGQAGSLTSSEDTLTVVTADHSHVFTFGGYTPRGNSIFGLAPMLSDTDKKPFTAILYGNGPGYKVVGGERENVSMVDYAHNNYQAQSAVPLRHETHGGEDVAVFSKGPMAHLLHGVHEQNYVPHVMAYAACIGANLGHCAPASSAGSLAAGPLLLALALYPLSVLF

The test has as its target Alkaline phosphatase, tissue-nonspecific isozyme (Homo sapiens) (UniProt P05186). Nature of the test: human TNAP activity change by analogs – biochemical, selectivity assay for mouse IAP activator project, SAR follow-up (AID 493133). The settings on record: purified human TNAP enzyme, phosphatase activity counter-screen. On the technique in general: A counterscreen serves to expose hits that act by an unwanted route or on another target.
In the case of `COc1cc(C(=O)NNc2nc3cc4c(cc3s2)OCO4)cc(OC)c1OC`, the EC50 (usually the concentration at which the effect is half-maximal) was 18.4 µM.

For `CC(C)c1ccc(NC(=O)CCNS(=O)(=O)c2ccc3[nH]c(=O)oc3c2)cc1`, the EC50 was > 100 µM (inactive). Under `O=C(N/N=C/c1ccsc1)c1cc(O)c(O)c(O)c1` stands > 100 µM (inactive); under `O=C(CN1C(=O)/C(=C/c2ccco2)SC1=S)Nc1ccc(O)c(C(=O)O)c1`, > 100 µM (inactive); under `O=[N+]([O-])c1ccc(NC(=S)NCCC(c2ccccc2)c2ccccc2)cc1`, > 100 µM (inactive). Under `S=C(NCCC(c1ccccc1)c1ccccc1)Nc1ccc(Cl)cc1Cl` stands 56 µM; under `COc1ccccc1NC(=O)CSc1sc2c(O)cc(=O)[nH]c2c1C#N`, > 100 µM (inactive). Under `O=C(CN1C(=O)/C(=C/c2ccco2)SC1=S)N[C@@H]1CSC[C@@H]1O` stands > 100 µM (inactive). As to `CCOc1ccc2nc(NC(=O)CN(C)S(=O)(=O)c3ccc4[nH]c(=O)oc4c3)sc2c1`, the EC50 was > 100 µM (inactive). For `CCc1nnc(NC(=O)CSc2sc3c(O)cc(=O)[nH]c3c2C#N)s1`, the EC50 was > 100 µM (inactive). Under `CCCSc1nnc(NC(=O)CSc2sc3c(O)cc(=O)[nH]c3c2C#N)s1` stands > 100 µM (inactive); under `Cc1ccc(NC(=O)CCNS(=O)(=O)c2ccc3[nH]c(=O)oc3c2)cc1F`, > 100 µM (inactive).

In the case of `COc1cc(C(=O)NN=Cc2ccccn2)cc(OC)c1OC`, the EC50 is 31 µM. Under `Cc1ccc(Cl)cc1NC(=O)CSc1sc2c(O)cc(=O)[nH]c2c1C#N` stands > 100 µM (inactive); under `COc1ccccc1NC(=O)CCNS(=O)(=O)c1ccc2[nH]c(=O)oc2c1`, > 100 µM (inactive); under `O=C(N/N=C/C1CC2CCC1C2)c1cc(O)c(O)c(O)c1` (stereo not drawn), > 100 µM (inactive). Consider `Cc1csc(NC(=O)CSc2sc3c(O)cc(=O)[nH]c3c2C#N)n1`, for which the EC50 was > 100 µM (inactive). Under `FC(F)(F)c1cccc(NC(=S)NCCC(c2ccccc2)c2ccccc2)c1` stands 84.5 µM; under `Cc1cc(=O)oc2cc(NC(=S)NCCC(c3ccccc3)c3ccccc3)ccc12`, > 100 µM (inactive); under `O=C(CN1C(=O)/C(=C/c2ccco2)SC1=S)NC1C=CS(=O)(=O)C1` (stereo not drawn), > 100 µM (inactive). Under `NS(=O)(=O)c1ccc(-c2ccc(/C=C3\SC(=S)N(C4CCS(=O)(=O)C4)C3=O)o2)cc1` (stereo not drawn) stands > 100 µM (inactive); under `N#Cc1c(SCC(=O)Nc2nncs2)sc2c(O)cc(=O)[nH]c12`, > 100 µM (inactive); under `Cc1ccc(/C=N/NC(=O)c2cc(O)c(O)c(O)c2)cc1`, > 100 µM (inactive). Turning to `O=C(CN1C(=O)/C(=C\c2ccco2)SC1=S)Nc1ccccc1C(=O)O`, the EC50 is > 100 µM (inactive). Turning to `O=C(CCCN1C(=O)/C(=C/c2ccco2)SC1=S)Nc1ccccc1`, the EC50 is > 100 µM (inactive).

Consider `O=S(=O)(Nc1ncccn1)c1ccc(NC(=S)NCCC(c2ccccc2)c2ccccc2)cc1`, for which the EC50 is > 100 µM (inactive). Under `O=C(O)CC(C(=O)O)N1C(=O)/C(=C/c2ccc(-c3nc4ccccc4s3)o2)SC1=S` (stereo not drawn) stands > 100 µM (inactive); under `O=C(CCN1C(=O)/C(=C/c2ccco2)SC1=S)Nc1ccc(C(=O)O)c(O)c1`, > 100 µM (inactive); under `CCOC(=O)NC(=O)CSc1sc2c(O)cc(=O)[nH]c2c1C#N`, > 100 µM (inactive). In the case of `O=C(NNC(=O)c1cc(O)c(O)c(O)c1)NC1CCCCC1`, the EC50 is > 100 µM (inactive).

For the compound `Cc1ccc(C)c(NC(=O)CCNS(=O)(=O)c2ccc3[nH]c(=O)oc3c2)c1`, the EC50 is > 100 µM (inactive). Under `COc1cccc(/C=N/NC(=O)c2cc(O)c(O)c(O)c2)c1` stands > 100 µM (inactive); under `N#Cc1c(SCC(=O)Nc2ccc(Cl)cc2Cl)sc2c(O)cc(=O)[nH]c12`, > 100 µM (inactive); under `Cc1ccc(NC(=O)CSc2sc3c(O)cc(=O)[nH]c3c2C#N)c(F)c1`, > 100 µM (inactive). Under `COc1ccc(Cl)cc1NC(=O)CSc1sc2c(O)cc(=O)[nH]c2c1C#N` stands > 100 µM (inactive); under `COc1ccccc1CNC(=O)CCNS(=O)(=O)c1ccc2[nH]c(=O)oc2c1`, > 100 µM (inactive); under `O=C(CCNS(=O)(=O)c1ccc2[nH]c(=O)oc2c1)Nc1ccccc1`, > 100 µM (inactive). As to `O=C(CN1C(=O)/C(=C/c2ccco2)SC1=S)NCCc1ccc(O)cc1`, the EC50 is > 100 µM (inactive). Take `O=C(CN1C(=O)/C(=C/c2ccco2)SC1=S)Nc1ccc(C(=O)O)c(O)c1`: the EC50 is > 100 µM (inactive). Turning to `COc1cccc(NC(=O)CN(C)S(=O)(=O)c2ccc3[nH]c(=O)oc3c2)c1`, the EC50 is > 100 µM (inactive).

Regarding `COc1cc(C(=O)NNC(=O)c2n[nH]c3ccccc23)cc(OC)c1OC`, the EC50 was 75 µM. Under `COc1ccc(N2CCN(C(=O)CN3C(=O)/C(=C\c4ccco4)SC3=S)CC2)cc1` stands > 100 µM (inactive); under `N#Cc1c(SCC(=O)Nc2ccc(C(F)(F)F)cc2)sc2c(O)cc(=O)[nH]c12`, > 100 µM (inactive). Under `CC(C(=O)Nc1cccc(C(=O)O)c1)N1C(=O)/C(=C\c2ccco2)SC1=S` (stereo not drawn) stands > 100 µM (inactive); under `O=C(c1ccco1)N1CCN(S(=O)(=O)c2ccc3[nH]c(=O)oc3c2)CC1`, > 100 µM (inactive); under `COc1ccc(NC(=O)C(CC(C)C)NS(=O)(=O)c2ccc3[nH]c(=O)oc3c2)cc1` (stereo not drawn), > 100 µM (inactive). Take `COC(=O)c1ccc(C)c(NC(=O)CSc2sc3c(O)cc(=O)[nH]c3c2C#N)c1`: the EC50 is > 100 µM (inactive). Under `CC(C(=O)N(C)C1CCS(=O)(=O)C1)N1C(=O)/C(=C/c2ccco2)SC1=S` (stereo not drawn) stands > 100 µM (inactive); under `N#Cc1cccc(NC(=O)CCNS(=O)(=O)c2ccc3[nH]c(=O)oc3c2)c1`, > 100 µM (inactive). Under `COc1ccc(CNC(=O)CSc2sc3c(O)cc(=O)[nH]c3c2C#N)cc1` stands > 100 µM (inactive); under `O=C(CN1C(=O)/C(=C/c2ccco2)SC1=S)NC1CCS(=O)(=O)C1` (stereo not drawn), > 100 µM (inactive); under `COc1cc(Cl)c(C)cc1NC(=O)CSc1sc2c(O)cc(=O)[nH]c2c1C#N`, > 100 µM (inactive). Under `O=C(CCN1C(=O)/C(=C/c2ccco2)SC1=S)Nc1ccc(O)cc1C(=O)O` stands > 100 µM (inactive). For the compound `CSc1cccc(NC(=O)CCNS(=O)(=O)c2ccc3[nH]c(=O)oc3c2)c1`, the EC50 is > 100 µM (inactive). Under `CCOc1cccc(NC(=O)CSc2sc3c(O)cc(=O)[nH]c3c2C#N)c1` stands > 100 µM (inactive); under `CN1CCC(=NNC(=O)c2cc(O)c(O)c(O)c2)CC1`, > 100 µM (inactive).

In the case of `O=C(N/N=C/c1ccc(F)cc1)c1cc(O)c(O)c(O)c1`, the EC50 was > 100 µM (inactive).

Consider `CN(C(=O)CN1C(=O)/C(=C\c2ccco2)SC1=S)C1CCS(=O)(=O)C1` (stereo not drawn), for which the EC50 is > 100 µM (inactive).

With `Cc1ccc(/C=C2\SC(=S)N(C3CCS(=O)(=O)C3)C2=O)o1` (stereo not drawn), the EC50 was > 100 µM (inactive). Under `O=C(CN1C(=O)/C(=C/c2ccco2)SC1=S)Nc1cccc(C(=O)O)c1` stands > 100 µM (inactive). Under `O=C(NCCc1ccc(Cl)cc1)C1CCCN(S(=O)(=O)c2ccc3[nH]c(=O)oc3c2)C1` (stereo not drawn) stands > 100 µM (inactive). As for `CCOC(=O)N1CCN(S(=O)(=O)c2ccc3[nH]c(=O)oc3c2)CC1`, the EC50 is > 100 µM (inactive). Under `CCOC(=O)N1CCC(NC(=O)CSc2sc3c(O)cc(=O)[nH]c3c2C#N)CC1` stands > 100 µM (inactive); under `N#Cc1c(SCC(=O)Nc2nc3ccccc3s2)sc2c(O)cc(=O)[nH]c12`, > 100 µM (inactive); under `O=C(CN1C(=O)/C(=C/c2ccco2)SC1=S)Nc1ccc(C(=O)O)cc1`, > 100 µM (inactive). Under `COc1ccc(NC(=O)CCNS(=O)(=O)c2ccc3[nH]c(=O)oc3c2)cc1Cl` stands > 100 µM (inactive); under `O=C(CCN1C(=O)/C(=C\c2ccco2)SC1=S)Nc1ccc(C(=O)O)c(O)c1`, > 100 µM (inactive); under `N#Cc1c(SCC(=O)Nc2ccccc2C(F)(F)F)sc2c(O)cc(=O)[nH]c12`, > 100 µM (inactive). As to `CCOc1ccccc1CNC(=O)CCNS(=O)(=O)c1ccc2[nH]c(=O)oc2c1`, the EC50 was > 100 µM (inactive). For the compound `Cc1cc(NC(=O)CSc2sc3c(O)cc(=O)[nH]c3c2C#N)ccc1Br`, the EC50 was > 100 µM (inactive).

Regarding `O=C(N/N=C/C1CC=CCC1)c1cc(O)c(O)c(O)c1` (stereo not drawn), the EC50 was > 100 µM (inactive). Under `COC(=O)NNC(=O)c1cc(OC)c(OC)c(OC)c1` stands > 100 µM (inactive); under `N#Cc1c(SCC(=O)Nc2nccs2)sc2c(O)cc(=O)[nH]c12`, > 100 µM (inactive).

Consider `COc1cc(C(=O)NNC(=S)NC(=O)c2ccc(Cl)cc2)cc(OC)c1OC`, for which the EC50 was 29.4 µM. Under `CC(C(=O)NCCc1ccc(O)cc1)N1C(=O)/C(=C/c2ccco2)SC1=S` (stereo not drawn) stands > 100 µM (inactive); under `CC(C)N1CCC(=NNC(=O)c2cc(O)c(O)c(O)c2)CC1`, > 100 µM (inactive); under `C/C(=N\NC(=O)c1cc(O)c(O)c(O)c1)c1ccncc1`, > 100 µM (inactive). Under `O=C(N/N=C/c1ccco1)c1cc(O)c(O)c(O)c1` stands > 100 µM (inactive). Regarding `O=C(N/N=C/c1ccccc1F)c1cc(O)c(O)c(O)c1`, the EC50 was > 100 µM (inactive). On to `O=C(NN=Cc1cccnc1)c1cc(O)c(O)c(O)c1`, for which the EC50 is > 100 µM (inactive). Under `COc1cc([N+](=O)[O-])ccc1NC(=S)NCCC(c1ccccc1)c1ccccc1` stands > 100 µM (inactive); under `COc1cc(C(=O)NNC(=S)NC(=O)c2ccccc2C)cc(OC)c1OC`, 40.5 µM. Under `Cc1ccc(NC(=O)CCNS(=O)(=O)c2ccc3[nH]c(=O)oc3c2)cc1` stands > 100 µM (inactive).

These data come from PubChem BioAssay AID493133 (Sanford-Burnham Center for Chemical Genomics, 2011).
